From patent publication US8461328B2, “Tricyclic heterocyclic compounds, compositions and methods of use thereof” (Genentech, Inc., priority 2010, dated 2013)
pKi: −log10 of the molar value. Read-outs that look alike come from different tables or passages of the source.

Experiments:
Assay type in all cases: biochemical
JAK3 = target: T1, JAK3 (Homo sapiens, UniProt P52333); experiment: JAK3 inhibition (Table 4)
T1 construct: made in house; host or cells: SF9 insect cells (baculovirus)

JAK1 = target: T2, JAK1 (Homo sapiens, UniProt P23458); experiment: JAK1 inhibition (Table 4)
T2 construct: made in house; host or cells: SF9 insect cells (baculovirus)
T2 sequence (P23458 852-1154): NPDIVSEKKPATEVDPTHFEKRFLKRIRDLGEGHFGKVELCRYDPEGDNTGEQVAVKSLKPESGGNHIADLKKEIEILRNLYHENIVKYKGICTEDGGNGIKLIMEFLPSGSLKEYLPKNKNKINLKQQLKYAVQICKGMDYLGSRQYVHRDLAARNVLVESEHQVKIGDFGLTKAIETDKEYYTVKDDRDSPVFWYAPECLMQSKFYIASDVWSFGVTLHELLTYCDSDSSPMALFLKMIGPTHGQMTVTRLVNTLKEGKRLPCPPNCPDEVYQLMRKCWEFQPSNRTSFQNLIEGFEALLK

TYK2 = target: T3, TYK2 (Homo sapiens, UniProt P29597); experiment: TYK2 inhibition (Table 4)
T3 construct: made in house; host or cells: SF9 insect cells (baculovirus)
T3 sequence (P29597 873-1187): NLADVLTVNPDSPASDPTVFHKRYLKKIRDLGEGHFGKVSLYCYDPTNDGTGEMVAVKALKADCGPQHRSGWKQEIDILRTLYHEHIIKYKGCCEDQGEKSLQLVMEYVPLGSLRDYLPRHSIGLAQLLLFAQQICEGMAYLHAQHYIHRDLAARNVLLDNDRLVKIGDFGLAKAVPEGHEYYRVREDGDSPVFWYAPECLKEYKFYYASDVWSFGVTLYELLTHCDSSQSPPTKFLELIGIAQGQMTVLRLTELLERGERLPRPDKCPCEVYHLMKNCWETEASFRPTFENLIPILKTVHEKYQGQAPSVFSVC

JAK2 = target: T4, JAK2 (Homo sapiens, UniProt O60674); experiment: JAK2 inhibition (Table 4); settings: read-out: JAK2 Ki
T4 construct: made in house; host or cells: SF9 insect cells (baculovirus)
T4 sequence (O60674 812-1132): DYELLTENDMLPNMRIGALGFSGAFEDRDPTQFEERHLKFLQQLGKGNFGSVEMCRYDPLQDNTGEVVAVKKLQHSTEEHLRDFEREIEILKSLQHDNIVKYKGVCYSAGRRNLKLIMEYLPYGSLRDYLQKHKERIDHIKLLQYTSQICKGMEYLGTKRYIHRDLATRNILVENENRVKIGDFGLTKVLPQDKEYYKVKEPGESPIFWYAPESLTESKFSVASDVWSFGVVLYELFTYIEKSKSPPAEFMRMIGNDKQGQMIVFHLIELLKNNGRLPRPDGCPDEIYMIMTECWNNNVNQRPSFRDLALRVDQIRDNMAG

T1 sequence (P52333 783-1124): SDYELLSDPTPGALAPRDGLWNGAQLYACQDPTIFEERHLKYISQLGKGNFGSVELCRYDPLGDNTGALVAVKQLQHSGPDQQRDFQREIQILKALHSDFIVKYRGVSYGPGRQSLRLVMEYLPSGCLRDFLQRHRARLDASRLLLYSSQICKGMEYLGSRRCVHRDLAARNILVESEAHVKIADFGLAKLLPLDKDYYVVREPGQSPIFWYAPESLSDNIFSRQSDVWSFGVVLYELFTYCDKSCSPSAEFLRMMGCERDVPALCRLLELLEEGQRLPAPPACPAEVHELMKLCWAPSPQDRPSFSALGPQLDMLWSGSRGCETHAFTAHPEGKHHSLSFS

`COC[C@H]1CC[C@H](n2c([C@@H](C)O)nc3cnc4[nH]ccc4c32)CC1` [Example 637, Trans (R)-1-[1-(4-methoxymethyl-cyclohexyl)-1,6-dihydro-1,2,3,5,6-tetraaza-as-indacen-2-yl]-ethanol] gave a pKi (JAK3; read-out: JAK3 Ki) of 7.43, a pKi (JAK1; read-out: JAK1 Ki) of 8.72 and a pKi (TYK2) of 8.13. It also gave a pKi (JAK2) of 7.45.
Work on `C[C@@H](O)c1nc2cnc3[nH]ccc3c2n1[C@H]1CC[C@H](OCC#N)CC1` [Example 639, Trans {4-[2-((R)-1-hydroxy-ethyl)-6H-1,2,3,5,6-tetraaza-as-indacen-1-yl]-cyclohexyloxy}-acetonitrile] yielded a pKi (JAK3; read-out: JAK3 Ki) of 7.24, a pKi (JAK1; read-out: JAK1 Ki) of 9.11 and a pKi (TYK2) of 8.39. It also gave a pKi (JAK2) of 7.84.
For `N#C[C@H]1CC[C@H](n2cnc3cnc4[nH]ccc4c32)CC1` [Example 640, trans 4-(6H-1,2,3,5,6-Tetraaza-as-indacen-1-yl)-cyclohexanecarbonitrile], the pKi (JAK3; read-out: JAK3 Ki) was 7.08, the pKi (JAK1; read-out: JAK1 Ki) was 8.41 and the pKi (TYK2) was 7.60. For the same compound, the pKi (JAK2) was 8.02.
`C[C@@H](O)c1nc2cnc3[nH]ccc3c2n1[C@H]1CC[C@H](C#N)CC1` [Example 641, trans 4-[2-((R)-1-Hydroxy-ethyl)-6H-1,2,3,5,6-tetraaza-as-indacen-1-yl]-cyclohexanecarbonitrile] was tested, and the pKi (JAK3; read-out: JAK3 Ki) was 6.59, the pKi (JAK1; read-out: JAK1 Ki) was 8.73 and the pKi (TYK2) was 7.91. It also gave a pKi (JAK2) of 7.18.
With `N#C[C@H]1CC[C@H](n2c(CO)nc3cnc4[nH]ccc4c32)CC1` [Example 642, Trans 4-(2-hydroxymethyl-6H-1,2,3,5,6-tetraaza-as-indacen-1-yl)cyclohexane carbonitrile] the pKi (JAK3; read-out: JAK3 Ki) was 6.73, the pKi (JAK1; read-out: JAK1 Ki) was 8.69 and the pKi (TYK2) was 8.14. It also gave a pKi (JAK2) of 7.68.
With `C[C@@H](O)c1nc2cnc3[nH]ccc3c2n1[C@H]1CC[C@H](CC#N)CC1` [Example 644, Trans {4-[2-((R)-1-Hydroxy-ethyl)-6H-1,2,3,5,6-tetraaza-as-indacen-1-yl]-cyclohexyl}-acetonitrile] the pKi (JAK3; read-out: JAK3 Ki) was 8.27, the pKi (JAK1; read-out: JAK1 Ki) was 9.92 and the pKi (TYK2) was 9.44. The pKi (JAK2) was 9.09.
For `N#CC[C@H]1CC[C@H](n2c(CO)nc3cnc4[nH]ccc4c32)CC1` [Example 645, Trans[4-(2-hydroxymethyl-6H-1,2,3,5,6-tetraaza-as-indacen-1-yl)-cyclohexyl]-acetonitrile], the pKi (JAK3; JAK3 Ki) was 8.45, the pKi (JAK1; JAK1 Ki) was 9.89 and the pKi (TYK2) was 9.60. For the same compound, the pKi (JAK2) was 9.41.
For `N#CCC[C@H]1CC[C@H](n2c(CO)nc3cnc4[nH]ccc4c32)CC1` [Example 646, 3-[4-(2-hydroxymethyl-6H-1,2,3,5,6-tetraaza-as-indacen-1-yl)-cyclohexyl]-propionitrile], the pKi (JAK3; read-out: JAK3 Ki) was 8.04, the pKi (JAK1; read-out: JAK1 Ki) was 9.28 and the pKi (TYK2) was 8.83. For the same compound, the pKi (JAK2) was 8.69.
For `C[C@@H](O)c1nc2cnc3[nH]ccc3c2n1[C@H]1CC[C@H](S(C)(=O)=O)CC1` [Example 650, Trans (R)-1-[1-(4-methanesulfonyl-cyclohexyl)-1,6-dihydro-1,2,3,5,6-tetraaza-as-indacen-2-yl]-ethanol], the pKi (JAK3; read-out: JAK3 Ki) was 6.12, the pKi (JAK1; read-out: JAK1 Ki) was 7.98 and the pKi (TYK2) was 7.28. It also gave a pKi (JAK2) of 6.95.
Compound `CS(=O)(=O)[C@H]1CC[C@H](n2c(CO)nc3cnc4[nH]ccc4c32)CC1` [Example 651, Trans[1-(4-Methanesulfonyl-cyclohexyl)-1,6-dihydro-1,2,3,5,6-tetraaza-as-indacen-2-yl]-methanol] has a pKi (JAK3; read-out: JAK3 Ki) of 6.37, a pKi (JAK1; read-out: JAK1 Ki) of 8.01 and a pKi (TYK2) of 7.46. It also gave a pKi (JAK2) of 7.37.
For `CS(=O)(=O)CC[C@H]1CC[C@H](n2c(CO)nc3cnc4[nH]ccc4c32)CC1` [Example 652, Trans {1-[4-(2-methanesulfonyl-ethyl)-cyclohexyl]-1,6-dihydro-1,2,3,5,6-tetraaza-as-indacen-2-yl}-methanol], the pKi (JAK3; read-out: JAK3 Ki) was 7.41, the pKi (JAK1; read-out: JAK1 Ki) was 9.09 and the pKi (TYK2) was 8.43. For the same compound, the pKi (JAK2) was 8.36.
Work on `C[C@@H](O)c1nc2cnc3[nH]ccc3c2n1[C@H]1CC[C@@H](n2cncn2)CC1` [Example 653, Cis (R)-1-[1-(4-[1,2,4]triazol-1-yl-cyclohexyl)-1,6-dihydro-1,2,3,5,6-tetraaza-as-indacen-2-yl]-ethanol] yielded a pKi (JAK3; read-out: JAK3 Ki) of 8.88, a pKi (JAK1; read-out: JAK1 Ki) of 9.06 and a pKi (TYK2) of 8.28. It also gave a pKi (JAK2) of 7.61.
`COc1nc2cnc3[nH]ccc3c2n1C1CCN(CCC#N)CC1` [Example 655, 3-[4-(2-Methoxy-6H-1,2,3,5,6-tetraaza-as-indacen-1-yl)-piperidin-1-yl]-propionitrile] was tested, and the pKi (JAK3; read-out: JAK3 Ki) was 7.80, the pKi (JAK1; read-out: JAK1 Ki) was 9.34 and the pKi (TYK2) was 8.33. For the same compound, the pKi (JAK2) was 8.97.
Compound `CN(C)c1nc2cnc3[nH]ccc3c2n1C1CCN(CCC#N)CC1` [Example 656, 3-[4-(2-Dimethylamino-6H-1,2,3,5,6-tetraaza-as-indacen-1-yl)-piperidin-1-yl]-propionitrile] has a pKi (JAK3; read-out: JAK3 Ki) of 7.42, a pKi (JAK1; read-out: JAK1 Ki) of 7.83 and a pKi (TYK2) of 6.38. The pKi (JAK2) was 7.11.
Work on `CNc1nc2cnc3[nH]ccc3c2n1C1CCN(CC(F)(F)F)CC1` [Example 658, Methyl-{1-[1-(2,2,2-trifluoro-ethyl)-piperidin-4-yl]-1,6-dihydro-1,2,3,5,6-tetraaza-as-indacen-2-yl}-amine] yielded a pKi (JAK3; read-out: JAK3 Ki) of 7.47, a pKi (JAK1; read-out: JAK1 Ki) of 8.45 and a pKi (TYK2) of 7.17. For the same compound, the pKi (JAK2) was 7.87.
`C[C@@H](O)c1nc2cnc3[nH]ccc3c2n1[C@@H]1CCCO1` [Example 659, (R)-1-[(S)-1-(Tetrahydro-furan-2-yl)-1,6-dihydro-1,2,3,5,6-tetraaza-as-indacen-2-yl]-ethanol] showed a pKi (JAK3; read-out: JAK3 Ki) of 6.76, a pKi (JAK1; read-out: JAK1 Ki) of 7.51 and a pKi (TYK2) of 6.51. The pKi (JAK2) was 6.40.
Compound `C[C@@H](O)c1nc2cnc3[nH]ccc3c2n1[C@H]1CCCO1` [Example 660, (R)-1-[(R)-1-(Tetrahydro-furan-2-yl)-1,6-dihydro-1,2,3,5,6-tetraaza-as-indacen-2-yl]-ethanol] has a pKi (JAK3; read-out: JAK3 Ki) of 5.98, a pKi (JAK1; read-out: JAK1 Ki) of 6.48 and a pKi (TYK2) of 6.19. For the same compound, the pKi (JAK2) was 5.91.
For `C[C@@H](O)c1nc2cnc3[nH]ccc3c2n1[C@@H]1CCCN(C(=O)CC#N)C1` [Example 661, 3-{(R)-3-[2-((R)-1-Hydroxy-ethyl)-6H-1,2,3,5,6-tetraaza-as-indacen-1-yl]-piperidin-1-yl}-3-oxo-propionitrile], the pKi (JAK3; read-out: JAK3 Ki) was 7.26, the pKi (JAK1; read-out: JAK1 Ki) was 8.40 and the pKi (TYK2) was 7.33. It also gave a pKi (JAK2) of 7.18.
With `C[C@H](O)c1nc2cnc3[nH]ccc3c2n1[C@@H]1CCCN(C(=O)CC#N)C1` [Example 662, 3-{(R)-3-[2-((S)-1-Hydroxy-ethyl)-6H-1,2,3,5,6-tetraaza-as-indacen-1-yl]-piperidin-1-yl}-3-oxo-propionitrile] the pKi (JAK3; read-out: JAK3 Ki) was 6.07, the pKi (JAK1; read-out: JAK1 Ki) was 7.58 and the pKi (TYK2) was 6.06. It also gave a pKi (JAK2) of 6.51.
With `CC(O)c1nc2cnc3[nH]ccc3c2n1C1CCCN(CCF)C1` [Example 664, (R)-1-{1-[(R)-1-(2-Fluoro-ethyl)-piperidin-3-yl]-1,6-dihydro-1,2,3,5,6-tetraaza-as-indacen-2-yl}-ethanol] the pKi (JAK3; read-out: JAK3 Ki) was 6.95, the pKi (JAK1; read-out: JAK1 Ki) was 7.20 and the pKi (TYK2) was 7.23. The pKi (JAK2) was 7.00.
Work on `c1cc2c(ncc3nc([C@H]4CCCN4)n([C@H]4CCCOC4)c32)[nH]1` [Example 667, 2-(R)-Pyrrolidin-2-yl-1-(S)-tetrahydro-pyran-3-yl-1,6-dihydro-1,2,3,5,6-tetraaza-as-indacene] yielded a pKi (JAK3; read-out: JAK3 Ki) of 6.05, a pKi (JAK1; read-out: JAK1 Ki) of 6.94 and a pKi (TYK2) of 6.28. For the same compound, the pKi (JAK2) was 6.33.
`COC(=O)N1CCCC(n2c([C@@H](C)O)nc3cnc4[nH]ccc4c32)C1` (stereo partly drawn) [Example 670, (R)-3-[2-((R)-1-Hydroxy-ethyl)-6H-1,2,3,5,6-tetraaza-as-indacen-1-yl]-piperidine-1-carboxylic acid methyl ester] showed a pKi (JAK3; read-out: JAK3 Ki) of 5.66, a pKi (JAK1; read-out: JAK1 Ki) of 6.40 and a pKi (TYK2) of 5.82. For the same compound, the pKi (JAK2) was 5.76.
